Data as given in paper PMC9402926, “Synthetic short-chain peptide analogues of H1 relaxin lack affinity for the RXFP1 receptor and relaxin-like bioactivity. Clues to a better understanding of relaxin agonist design” (Frontiers in Pharmacology, 2022).

Tests used:
[1] = biological target: RXFP1-BP (ectodomain of human RXFP1 fused to the single transmembrane and cytoplasmic region of CD8); experiment: competition binding with europium-labelled ligand on whole cells; whole cells in 96 well plates; HEK-293T stably expressing RXFP1-BP; single concentration of europium-labeled H2 relaxin (1 nm as printed) with or without increasing concentrations of the competing peptides; non-specific binding with 1 µM serelaxin; triplicates, 2 independent experiments; one site binding model
RXFP1 [2] = experiment: ERK1/2 phosphorylation in TGF-β1-induced myofibroblasts from NIH-3T3 fibroblasts expressing RXFP1, Western blot; format: cell-based; details: mouse myofibroblasts (TGF-β 48 h), 30 and 90 min, 3 independent experiments
Method: Cell culture for ERK1/2 phosphorylation assay - The RXFP1 downstream ERK1/2 phosphorylation pathway was tested on myofibroblasts using a method based on that described by [Hossain et al. (2016)], with minor modifications. Mouse NIH-3T3 fibroblasts (ATCC, Manassas, VA, United States) expressing RXFP1 ([Sassoli et al., 2013]) were cultured in DMEM supplemented with 10% fetal bovine serum (FBS), 2 mm glutamine, 250 U/ml penicillin G and 250 μg/ml streptomycin, in a humidified atmosphere with 5% CO2 at 37°C. They were induced to myofibroblasts in DMEM containing 2% FBS and 2 ng/ml human TGF-β1 (PeproTech, Rocky Hill, NJ, United States) for 12, 24, 48 and 72 h ([Sassoli et al., 2013]). Myofibroblasts were then incubated for 30 or 90 min with either serelaxin (17 nM), or B7-33 (1.7 μM), or the H1 peptides 6 and 7 (1.7 μM), selected among those which had shown a minimal ability to bind RXFP1 in the competition binding experiments. Untreated myofibroblasts were used as controls. To verify fibroblast-to-myofibroblast transition and ERK1/2 phosphorylation, cells were lysed in cold buffer composed of (mM): 10 Tris/HCl pH 7.4, 10 NaCl, 1.5 MgCl2, 2 Na2EDTA, 1% Triton X-100, added with 10x Sigmafast Protease Inhibitor Cocktail tablets and […] Na3VO4 to inhibit endogenous phosphatases. Total protein content was measured spectrophotometrically using micro-BCA Protein Assay Kit (Pierce). Sixty μg of total proteins were electrophoresed by SDS–PAGE and blotted onto PVDF membranes (Millipore, Bedford, MA, United States). […] Specific bands were detected using appropriate peroxidase-labeled secondary antibodies (1:15,000; Vector, Burlingame, CA, United States) and enhanced chemiluminescent substrate (ECL, Sigma-Aldrich). […]

[3] = system: RXFP1-BP (ectodomain of human RXFP1 fused to the single transmembrane and cytoplasmic region of CD8); experiment: Competition binding with europium-labelled H2 relaxin in HEK-293T cells stably expressing RXFP1-BP; details: 10 µM competing peptide; 1 nm europium-labeled H2 relaxin; whole cells, 96 well plates; triplicate points, 2 independent experiments
Text: Cell culture for ligand-receptor binding assays—Human embryonic kidney cells (HEK-293T) stably expressing RXFP1-BP ([Halls et al., 2005]) were used for competition binding experiments using europium-labelled H2 relaxin, as described ([Shabanpoor et al., 2012]). This construct contains the ectodomain of human RXFP1 fused to the single transmembrane and cytoplasmic region of CD8. This ectodomain-only construct has a higher affinity for single chain H2 relaxin peptides and is used as a surrogate assay for binding affinity. Assays were performed in whole cell 96 well plates assays with a single concentration of the europium-labeled H2 relaxin (1 nm) in the presence or absence of increasing concentrations of the competing peptides. Non-specific binding was assessed using 1 µM of serelaxin. Each concentration point was assessed in triplicate in 2 independent experiments. The binding data were analyzed using GraphPad Prism 9 and expressed as mean ± SEM. They were fitted using a one site binding model.

RXFP1 [4] = experiment: cAMP generation in human monocytic THP-1 cells (RXFP1 downstream pathway), Direct cAMP ELISA; format: cell-based; details: serelaxin 17 nm, 15 min, IBMX 100 μM, 3 independent experiments
Method: Cell culture for cAMP assay—The RXFP1 downstream cAMP pathway was tested on human monocytic THP-1 cells (ECACC, Salisbury, UK) cultured in suspension in RPMI medium containing 10% foetal bovine serum, 0.05 mm 2-mercaptoethanol, 250 U/ml penicillin G and 250 μg/ml streptomycin, in a 5% CO2 atmosphere at 37°C. Cells (5 × 10^5) were placed in a 24-well plate, added with IBMX (100 μM) to prevent cAMP catabolism and then incubated with the different stimulants. As positive controls, either serelaxin (17 nm) and B7-33 (17, 170, 1700 nm) were used. The H1 peptides 4, 6 and 7, selected among those which had shown a minimal ability to bind RXFP1 in the competition binding experiments, were also used at 17, 170 and 1700 nm final concentration. The cAMP assay was carried out 15 min after RXFP1 stimulation, coinciding with the second sustained cAMP surge ([Nguyen et al., 2003]; [Bani et al., 2007]). The adenylate cyclase activator forskolin (100 μM) was used to determine the maximal cAMP levels. Triplicate cAMP measurements were performed by a Direct cAMP ELISA Kit (Enzo, Milan, Italy). […] The values of cAMP were normalized by the amount of proteins, measured by the micro-BCA Protein Assay Kit (Pierce, IL, United States) and expressed as mg/ml. For statistical purposes, 3 independent experiments were performed.

[5] = i.v. administration; ref Chen et al., 1993; cited from earlier work
Method: Since recombinant human H2 relaxin (RLX), later termed serelaxin, was made available as clinical-grade drug ([Stults et al., 1990]), several clinical trials have been performed to explore its therapeutic potential, particularly as cardiovascular and anti-fibrotic agent ([Bani 2020]; [Samuel and Bennett 2021]; [Sassoli et al., 2022]). The last RELAX-AHF-2 phase III trial was performed under the auspices of Novartis Europharm Ltd., owner of the serelaxin patent, to assess its efficacy in patients with heart failure. Regrettably, in spite of encouraging theoretical premises and pre-clinical evide ...

[Ser10,22]Cyclo[LysN3 17, Pra21]H1RLXB(1-23) (peptide)
percent competition of Eu-H2 relaxin binding at 10 µM [1]: 20%

[Ser10,22]Cyclo[Pra17, LysN3 21]H1RLXB(1-23) (peptide)
percent competition of Eu-H2 relaxin binding at 10 µM [1]: 20%

[Ser^10,22]Cyclo[LysN3 ^17, Pra^21]H1RLXB(1–23) [compound 7]
ERK1/2 phosphorylation (RXFP1 [2]; peptide 1.7 μM): neither of the H1 peptides 6 and 7 were capable of reproducing the effects of the authentic hormone | competition of Eu-H2 relaxin binding [3]: ~20%

[Ser^10,22]Cyclo[Pra^14, LysN3 ^18]H1RLXB(1–23) [compound 4]
competition of Eu-H2 relaxin binding [3]: ~20%

[Ser^10,22]Cyclo[Pra^17, LysN3 ^21]H1RLXB(1–23) [compound 6]
ERK1/2 phosphorylation (RXFP1 [2]; peptide 1.7 μM): neither of the H1 peptides 6 and 7 were capable of reproducing the effects of the authentic hormone | competition of Eu-H2 relaxin binding [3]: ~20%

serelaxin
ERK1/2 phosphorylation (RXFP1 [2]; serelaxin 17 nM): statistically significant increase in ERK1/2 phosphorylation | elevation of cAMP (RXFP1 [4]): statistically significant elevation of cAMP | half-life [5]: ~2 h
